Experimental findings from ChEMBL document CHEMBL1201862, “PubChem BioAssay data set” (2004) are described below.

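Briefly, cells in 96-well plates were exposed to five compound concentrations for 48 h, and endpoints were estimated by linear interpolation. GI50 is the concentration that inhibits growth by half.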 Active and inactive are the calls of the source. Rule as the data show it: active = GI50 up to about 1.1 µM and inactive = higher. Some results are limits rather than exact numbers.

Common to all, as to assay: inhibition of tumour cell growth, NCI panel, 48 h
Assay [1] relates to SK-MEL-2.
Assay [2] relates to MOLT-4.
Assay [3] concerns DU-145.
The subject of assay [4] is HCT-116.
For assay [5], the system named is HOP-92.
Assay [6] relates to UO-31.
The test system of assay [7] is RPMI-8226.
For assay [8], the system named is HCC 2998.
Assay [9] has as its system OVCAR-3.
Assay [10] concerns IGROV-1.
Assay [11] relates to PC-3.
Assay [12] deals with ACHN.
Assay [13] deals with SK-MEL-5.
The test system of assay [14] is SR.
The test system of assay [15] is HCT-15.
Assay [16] has as its system SF-295.
The subject of assay [17] is SW-620.
For assay [18], the system named is U-251.
Assay [19] has as its system A549.
The test system of assay [20] is A498.

Turning to `CC1(C)NC(C(=O)c2ccccc2)=[N+]([O-])C1(O)c1ccccc1` (stereo not given), the GI50 in assay [1] was > 100 µM (inactive); in assay [2], > 100 µM (inactive); in assay [3] it was > 100 µM (inactive); in assay [4], 74.5 µM (inactive); in [5] it was > 100 µM (inactive); in assay [6], 69.8 µM (inactive). Also, the GI50 in [7] is > 100 µM (inactive); in assay [8], > 100 µM (inactive); in assay [9], 95.3 µM (inactive); in assay [10], > 100 µM (inactive); in assay [11] it was > 100 µM (inactive); in [12], > 100 µM (inactive). Further, the GI50 is 93.3 µM (inactive) in [13]; > 100 µM (inactive) in assay [14]; 81.3 µM in [15]; > 100 µM (inactive) in [16]; > 100 µM (inactive) in assay [17]; > 100 µM (inactive) in assay [18]. In assay [19], the GI50 is > 100 µM (inactive).
Consider `COc1cccc(-c2cccc(SC)n2)n1`, for which the GI50 was 36.3 µM (inactive) in assay [1]; 21.5 µM (inactive) in [2]; 34.4 µM (inactive) in assay [3]; 28.4 µM (inactive) in assay [4]; 19.5 µM (inactive) in assay [5]; 30.5 µM (inactive) in [6]. The GI50 is 23.4 µM (inactive) in assay [7]; 23.4 µM (inactive) in [8]; 20.8 µM (inactive) in [9]; 27.2 µM (inactive) in assay [10]; 38.6 µM (inactive) in [11]; 36.8 µM (inactive) in assay [12]. The GI50 in [13] was 20.5 µM (inactive); in assay [14], 18.1 µM (inactive); in assay [15], 27 µM; in [16] it was 34.4 µM (inactive); in assay [17], 32 µM (inactive); in assay [18] it was 36.7 µM (inactive). For the same compound, the GI50 in [19] was 23.8 µM (inactive).
Turning to `CC(C)(C)OCC1NC(=O)[C@@H]2Cc3c([nH]c4ccccc34)C(C3CCCCC3)N2C1=O` (stereo not given in full), the GI50 in assay [1] is 20.7 µM (inactive); in [2], 16.5 µM (inactive); in assay [3], 34.8 µM (inactive); in assay [4], 15.3 µM (inactive); in assay [5], 22.1 µM (inactive); in [6] it was 32.9 µM (inactive). For the same compound, the GI50 was 19.8 µM (inactive) in assay [7]; 11.6 µM (inactive) in assay [9]; 23.2 µM (inactive) in assay [10]; 18.8 µM (inactive) in assay [11]; 27 µM (inactive) in assay [12]; 15.2 µM (inactive) in [13]. Moreover, the GI50 in [14] is 16.2 µM (inactive); in [15], 24 µM; in assay [16] it was 18.2 µM (inactive); in assay [17], 25.3 µM (inactive); in assay [18], 20.4 µM (inactive); in assay [19] it was 33.7 µM (inactive). In addition, the GI50 in assay [20] is 32.2 µM (inactive).
Regarding `O=C1NC(=O)C(C(CC(=O)c2ccc([N+](=O)[O-])cc2)c2ccccc2)C(=O)N1` (stereo not given), the GI50 in assay [1] is > 100 µM (inactive); in assay [2], 73.3 µM (inactive); in assay [3] it was > 100 µM (inactive); in assay [4] it was 14.8 µM (inactive); in [5], > 100 µM (inactive); in [6] it was > 100 µM (inactive). Further, the GI50 in assay [7] was 31.3 µM (inactive); in [9] it was 36.7 µM (inactive); in [10] it was > 100 µM (inactive); in assay [11], 55.8 µM (inactive); in assay [12], > 100 µM (inactive); in assay [13], 41.6 µM (inactive). Besides, the GI50 in assay [14] was 40 µM (inactive); in [15], above 100 µM; in assay [16], 4.79 µM (inactive); in [17] it was 29.2 µM (inactive); in assay [18], 49.4 µM (inactive); in assay [19], 97.3 µM (inactive). Besides, the GI50 in assay [20] is > 100 µM (inactive).
Take `CC(C)(C)OC(=O)N/N=C(/N)Cc1ccc(Cl)cc1`: the GI50 in [1], in assay [2], in assay [3], in [4], in assay [6] and in assay [8] was > 100 µM (inactive) throughout. Moreover, the GI50 was > 100 µM (inactive) in assay [9]; > 100 µM (inactive) in assay [10]; > 100 µM (inactive) in [11]; > 100 µM (inactive) in [12]; > 100 µM (inactive) in assay [13]; 51.6 µM (inactive) in [14]. The GI50 in assay [15] is above 100 µM; in assay [16] it was > 100 µM (inactive); in assay [17], > 100 µM (inactive); in assay [18] it was > 100 µM (inactive); in assay [19], > 100 µM (inactive); in assay [20] it was > 100 µM (inactive).
Consider `N=C1N(S(=O)(=O)c2ccccc2)[C@@H](Cc2ccccc2)[C@H](c2ccccc2)C1(c1ccccc1)c1ccccc1`, for which the GI50 in [1] is > 100 µM (inactive); in assay [2] it was 16.8 µM (inactive); in assay [3], > 100 µM (inactive); in assay [4], 40.4 µM (inactive); in assay [6], 8.55 µM (inactive); in [7], 14 µM (inactive). Moreover, the GI50 in assay [8] is 27.2 µM (inactive); in assay [9], 10.4 µM (inactive); in [10], > 100 µM (inactive); in [11], 9.62 µM (inactive); in [12], > 100 µM (inactive); in assay [13], 23.6 µM (inactive). Further, the GI50 in assay [14] was 41.3 µM (inactive); in assay [15], above 100 µM; in assay [16], > 100 µM (inactive); in [17] it was > 100 µM (inactive); in [18] it was 64.1 µM (inactive); in [19] it was > 100 µM (inactive). Moreover, the GI50 in assay [20] was > 100 µM (inactive).
As for `O=[As](O)(O)c1ccc(/N=N/c2ccc([As](=O)(O)O)cc2)cc1`, the GI50 in assay [1], in [2], in [3], in assay [4], in [5] and in [6] was > 100 µM (inactive) throughout. The GI50 in assay [9], in assay [10], in [11], in [12], in assay [13] and in [14] was > 100 µM (inactive) throughout. In addition, the GI50 in assay [15] is above 100 µM; in assay [16], > 100 µM (inactive); in assay [17] it was > 100 µM (inactive); in assay [18] it was > 100 µM (inactive); in assay [19], > 100 µM (inactive); in [20], > 100 µM (inactive).
Turning to `COc1ccccc1NC(=S)NNC(=O)c1cc(-c2ccccc2)nc2ccccc12`, the GI50 was 10.4 µM (inactive) in [1]; 4.3 µM (inactive) in assay [2]; 12.4 µM (inactive) in assay [3]; 6.22 µM (inactive) in assay [4]; 12.8 µM (inactive) in [5]; 11 µM (inactive) in [6]. In addition, the GI50 in assay [7] is 6.97 µM (inactive); in assay [8] it was 13.6 µM (inactive); in assay [9], 4.45 µM (inactive); in assay [10], 13.9 µM (inactive); in [11] it was 10.3 µM (inactive); in [12], 17.7 µM (inactive). Moreover, the GI50 in assay [13] was 5.81 µM (inactive); in assay [14] it was 1.74 µM (inactive); in assay [15] it was 4.11 µM; in [16], 4.38 µM (inactive); in assay [17], 7.76 µM (inactive); in [18] it was 9.59 µM (inactive). Moreover, the GI50 in assay [19] was 8.55 µM (inactive).
